Measurements from patent US20040106545A1, “Compounds and methods for modulating cell adhesion” (priority 1996, published 2004).
“Also recorded” adds a separate entry of the source. Where two headings read alike, the source gives them in different places. One block for each compound: values may come before it. Positions of bridges follow the written chain, without caps; N, C: chain ends. Residues, ends and D or L forms follow the SMILES beside them.

Key:
[1] = target: T1, chick N-cadherin (Gallus gallus, UniProt P10288); assay: Neurite outgrowth of rat cerebellar neurons on N-cadherin expressing 3T3 monolayers (Example 15); type: cell-based; conditions: for inhibitory activity on N-cadherin dependent neurite outgrowth, structure/activity statements: Tables 8 and 9; for inhibition at 250 µg/mL: 16-18 hours, read-out: % Inhibition of N-Cadherin Dependent Neurite Outgrowth
T1 construct: expressed in transfected cells; host or cells: 3T3 fibroblasts (monolayer); rat post-natal day 2-3 cerebellar neurons plated on top
T1 sequence (P10288 165-912): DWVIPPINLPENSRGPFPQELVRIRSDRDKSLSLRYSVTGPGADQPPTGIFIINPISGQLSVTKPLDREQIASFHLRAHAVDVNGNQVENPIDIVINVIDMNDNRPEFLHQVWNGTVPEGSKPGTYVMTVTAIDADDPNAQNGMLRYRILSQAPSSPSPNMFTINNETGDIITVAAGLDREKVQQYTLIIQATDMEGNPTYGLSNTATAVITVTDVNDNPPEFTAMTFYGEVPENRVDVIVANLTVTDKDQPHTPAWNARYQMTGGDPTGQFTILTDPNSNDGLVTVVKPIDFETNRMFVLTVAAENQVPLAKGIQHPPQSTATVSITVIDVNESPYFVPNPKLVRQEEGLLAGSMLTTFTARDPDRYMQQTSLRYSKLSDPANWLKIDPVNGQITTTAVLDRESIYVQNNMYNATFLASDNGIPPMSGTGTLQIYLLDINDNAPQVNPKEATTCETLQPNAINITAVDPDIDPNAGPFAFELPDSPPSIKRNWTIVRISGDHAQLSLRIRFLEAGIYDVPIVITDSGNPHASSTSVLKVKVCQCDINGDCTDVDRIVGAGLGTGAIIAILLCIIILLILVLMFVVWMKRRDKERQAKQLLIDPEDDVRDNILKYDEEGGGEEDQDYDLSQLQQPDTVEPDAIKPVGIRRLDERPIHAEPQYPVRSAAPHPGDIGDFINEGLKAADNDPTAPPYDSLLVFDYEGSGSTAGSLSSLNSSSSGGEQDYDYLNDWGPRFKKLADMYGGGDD
Protocol: (§1) Cell culture and neurite outgrowth assays. Co-cultures of cerebellar neurons on monolayers of control 3T3 cells and monolayers of transfected 3T3 cells that express physiological levels of chick N-cadherin or human L1 were established as previously described (Williams et al., Neuron 13:583-594, 1994). In brief, 80,000 3T3 cells (control and transfected) were plated into individual chambers of an eight-chamber tissue culture slide coated with polylysine and fibronectin and cultured in DMEM/10% FCS. After 24 hours, when confluent monolayers had formed, the medium was removed and 3000 cerebellar neurons isolated from post-natal day 2-3 rats were plated into each well in SATO media (Doherty et al., Nature 343:464-466, 1990) supplemented with 2% FCS. All of the test peptides were added immediately before the neurons as a 2× stock prepared in SATO/2% FCS. The co-cultures were maintained for 16-18 hours, at which time they were fixed and immunostained for GAP-43 which is present only in the neurons and delineates the neuritic processes. The mean length of the longest neurite per cell was measured for 150-200 neurons sampled in replicate cultures as previously described (Williams et al., Neuron 13:583-594, 1994). […] Dose-response curves were evaluated and the EC50 values determined.

[2] = system: Madin Darby canine kidney (MDCK) cells; type: cell-based; conditions: for EC50, decrease of electrical resistance across MDCK cell monolayer: 18 hours
Protocol: Yet another assay evaluates the effect of a modulating agent on the electrical resistance across a monolayer of cells. For example, Madin Darby canine kidney (MDCK) cells can be exposed to the modulating agent dissolved in medium (e.g., at a final concentration of 0.5 mg/ml for a period of 24 hours). The effect on electrical resistance can be measured using standard techniques. This assay evaluates the effect of a modulating agent on tight junction formation in epithelial cells. In general, the presence of 500 μg/mL modulating agent should result in a statistically significant decrease in electrical resistance after 24 hours.
Madin Darby canine kidney (MDCK) cells were plated in Millicells (Millipore, Bedford, Mass.), at a density of 300,000 cells per Millicell, and cultured in Dulbecco's Modified Eagle Medium (DMEM; Sigma, St. Louis, Mo.) containing 5% fetal calf serum (Sigma, St. Louis, Mo.) until monolayers formed. Monolayers were exposed to the modulating agent dissolved in medium. The electrical resistance was measured using the EVOM device (World Precision Instruments, Sarasota, Fla.). At the time of measurement, fresh medium, with or without the modulating agent, may be added to the Millicells.

[3] = target: L1 (Homo sapiens, UniProt P32004); assay: Neurite outgrowth of rat cerebellar neurons on L1 expressing 3T3 monolayers (Example 15); type: cell-based; set-up: expressed in transfected cells; rat cerebellar neurons on top; conditions: for inhibition at 125 µg/mL: 125 μg/ml, read-out: % Inhibition of L1 Response; for effect on L1 stimulated neurite outgrowth (in words): concentrations that inhibited the N-cadherin response (100 μg/mL in FIG. 24)
Chain of L1 (P32004 20-1257): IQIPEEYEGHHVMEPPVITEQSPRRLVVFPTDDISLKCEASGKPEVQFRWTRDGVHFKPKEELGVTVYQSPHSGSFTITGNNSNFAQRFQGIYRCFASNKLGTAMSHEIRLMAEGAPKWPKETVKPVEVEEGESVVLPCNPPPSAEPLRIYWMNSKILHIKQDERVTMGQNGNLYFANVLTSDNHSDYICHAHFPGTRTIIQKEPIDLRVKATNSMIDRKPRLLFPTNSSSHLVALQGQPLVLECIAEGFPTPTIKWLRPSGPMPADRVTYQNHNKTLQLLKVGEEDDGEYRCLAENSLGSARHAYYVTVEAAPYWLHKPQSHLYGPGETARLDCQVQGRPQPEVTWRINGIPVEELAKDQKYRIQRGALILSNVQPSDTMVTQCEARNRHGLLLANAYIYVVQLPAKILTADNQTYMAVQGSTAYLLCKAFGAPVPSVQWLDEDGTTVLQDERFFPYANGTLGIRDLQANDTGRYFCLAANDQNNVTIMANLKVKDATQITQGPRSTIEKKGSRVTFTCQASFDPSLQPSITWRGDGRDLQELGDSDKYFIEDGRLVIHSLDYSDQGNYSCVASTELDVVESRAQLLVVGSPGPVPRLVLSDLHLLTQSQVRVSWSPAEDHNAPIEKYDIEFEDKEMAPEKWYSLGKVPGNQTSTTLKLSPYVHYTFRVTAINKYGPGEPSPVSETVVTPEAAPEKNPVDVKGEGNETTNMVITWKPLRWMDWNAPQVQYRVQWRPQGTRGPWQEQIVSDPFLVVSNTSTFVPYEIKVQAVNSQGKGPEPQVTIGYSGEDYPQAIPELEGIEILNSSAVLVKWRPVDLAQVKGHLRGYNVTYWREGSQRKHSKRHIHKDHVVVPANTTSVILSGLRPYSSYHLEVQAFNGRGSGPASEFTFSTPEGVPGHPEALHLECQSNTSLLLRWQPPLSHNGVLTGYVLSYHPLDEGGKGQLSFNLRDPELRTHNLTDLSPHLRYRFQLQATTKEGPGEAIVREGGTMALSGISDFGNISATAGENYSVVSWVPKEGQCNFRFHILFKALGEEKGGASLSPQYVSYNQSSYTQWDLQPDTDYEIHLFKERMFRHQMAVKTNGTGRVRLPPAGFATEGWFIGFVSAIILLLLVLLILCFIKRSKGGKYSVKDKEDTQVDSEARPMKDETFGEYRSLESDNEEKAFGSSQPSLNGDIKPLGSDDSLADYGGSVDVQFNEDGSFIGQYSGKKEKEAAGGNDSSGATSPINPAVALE
Protocol: as §1
Other cell adhesion molecules, such as L1, can stimulate neurite outgrowth, and this response shares the same downstream signaling steps as the N-cadherin response. […] As previously reported, L1 stimulated neurite outgrowth from cerebellar neurons.

[4] = system: Madin Darby canine kidney (MDCK) cells; type: cell-based; conditions: 18 h
[5] = target: T2, N-cadherin (Gallus gallus, UniProt P10288); assay: Neurite outgrowth inhibition, rat neurons (Example 21); type: cell-based; conditions: read-out: % Inhibition of neurite outgrowth; 250 μg/mL
T2 construct: expressed in transfected cells; host or cells: 3T3 fibroblasts (monolayer)
T2 sequence (P10288 165-912): T1 sequence (P10288 165-912)

[6] = system: HMVEC; type: cell-based, human; conditions: 3 h
Protocol: (§2) N—Ac-CHAVC-NH2 (SEQ ID NO:10) and the control peptide N—Ac-CHGVC-NH2 (SEQ ID NO:11) were evaluated for possible cytotoxic effects on human microvascular endothelial (HMVEC; Clonetics), human umbilical vein endothelial (HUVEC; ATCC #CRL-1730), IAFp2 (human fibroblast cell line; Institute Armand-Frapier, Montreal, Quebec), WI-38 (human fibroblast cell line; ATCC #CCL-75), MDA-MB231 (human breast cancer cell line; ATCC #HTB-26), and PC-3 (human prostate cancer cell line; ATCC #CRL-1435) cells utilizing the MTT assay (Plumb et al., Cancer Res. 49:4435-4440, 1989). Neither of the peptides was cytotoxic at concentrations up to and including 100 μM. Similarly, neither of the peptides was capable of inhibiting the proliferation of the above cell lines at concentrations up to 100 μM, as judged by ^3H-thymidine incorporation assays.

[7] = system: HUVEC; type: cell-based, human; conditions: 3 h
Protocol: as §2

[8] = system: IAFp2; type: cell-based, human; conditions: 3 h
Protocol: as §2

[9] = system: MDA-MB231; type: cell-based, human; conditions: 3 h
Protocol: as §2

[10] = system: PC-3; type: cell-based, human; conditions: 3 h
Protocol: as §2

[11] = system: WI-38; type: cell-based, human; conditions: 3 h
Protocol: as §2

[12] = system: MDA-MB231; assay: Cytotoxicity, MTT assay, MDA-MB231; type: cell-based, human
Protocol: as §2

[13] = system: PC-3; assay: Cytotoxicity, MTT assay, PC-3; type: cell-based, human
Protocol: as §2

inhibition of N-cadherin dependent neurite outgrowth (in words) ([1]; 250 μg/mL): potent inhibitors of neurite outgrowth
inhibition at 250 µg/mL [5]: 88%
inhibition at 125 µg/mL [3]: 9.6 ± 3.3%
SMILES: CC(=O)N[C@H]1CSSC[C@@H](C(N)=O)NC(=O)[C@H](CC(=O)O)NC(=O)[C@H](C(C)C)NC(=O)[C@H](C)NC(=O)[C@H](Cc2c[nH]cn2)NC1=O [N—Ac—CHAVDC—NH2] (Ac-CHAVDC-NH2; disulfide 1-6)
inhibitory activity on N-cadherin dependent neurite outgrowth, structure/activity statements [1]: dramatically increased the inhibitory activity
effect on electrical resistance across MDCK cells (in words) [2]: complete abrogation of E-cadherin specific activity
EC50, decrease of electrical resistance across MDCK cell monolayer [2]: INACTIVE
effect on L1 stimulated neurite outgrowth (in words) [3]: did not interfere with the ability of neurons to extend neurites over 3T3 cells expressing L1

IC50 [6]: > 100 µM
IC50 [8]: > 100 µM
IC50 [9]: > 100 µM
IC50 [10]: > 100 µM
reduction in inhibitory activity on flanking HAV with E-cadherin amino acids ([1]; 250 μg/mL (Table 8)): complete
inhibition at 250 µg/mL [5]: 0%
SMILES: CC(=O)N[C@H]1CSSC[C@@H](C(N)=O)NC(=O)[C@H](C(C)C)NC(=O)[C@H](C)NC(=O)[C@H](Cc2c[nH]cn2)NC(=O)[C@H](CO)NC1=O [N—Ac—CSHAVC—NH2, N-Ac-Cys-Ser-His-Ala-Val-Cys-NH2] (Ac-CSHAVC-NH2; disulfide 1-6)
IC50 [7]: > 100 µM
IC50 [11]: > 100 µM
IC50 [12]: > 100 µM
IC50 [13]: > 100 µM
EC50 [4]: 20 µM

The next lines start with the compound.

SMILES: CC[C@H](C)[C@@H]1NC(=O)[C@H](CC(=O)O)NC(=O)[C@H](C(C)C)NC(=O)[C@H](C)NC(=O)[C@H](Cc2c[nH]cn2)NC(=O)[C@@H](NC(C)=O)CSSC[C@@H](C(N)=O)NC(=O)[C@H](CC(N)=O)NC1=O (Ac-CHAVDINC-NH2; disulfide 1-8)
inhibitory activity on N-cadherin dependent neurite outgrowth, structure/activity statements ([1]; listed as N—Ac-CHAVDINC-NH2): only a slight loss in activity; also recorded: potent inhibitors
effect on electrical resistance across MDCK cells (in words) [2]: complete abrogation of E-cadherin specific activity
EC50, decrease of electrical resistance across MDCK cell monolayer [2]: INACTIVE
inhibition at 125 µg/mL [3]: 1.7 ± 7.3%
effect on L1 stimulated neurite outgrowth (in words) ([3]; listed as N—Ac-CHAVDINC-NH2): did not interfere with the ability of neurons to extend neurites over 3T3 cells expressing L1

SMILES: CC(C)[C@@H]1NC(=O)[C@H](C)NC(=O)[C@H](Cc2c[nH]cn2)NC(=O)[C@@H](NC=O)CSSC[C@@H](C(N)=O)NC1=O [H—C(O)—NH—CHAVC—NH2]
effect on electrical resistance across MDCK cells (in words) [2]: decrease in potency
EC50 [4]: 560 µM

SMILES: CC(=O)N[C@H]1CSSC[C@@H](C(=O)N[C@@H](CO)C(=O)N[C@@H](CO)C(N)=O)NC(=O)[C@H](C(C)C)NC(=O)[C@H](C)NC(=O)[C@H](Cc2c[nH]cn2)NC1=O [N—Ac—CHAVCSS—NH2] (Ac-CHAVCSS-NH2; disulfide 1-5)
inhibition at 250 µg/mL ([1]; 250 μg/mL): 37.8 ± 4%
EC50 [4]: 430 µM

SMILES: CC(=O)N[C@H]1CSSC[C@@H](C(=O)N[C@@H](CO)C(N)=O)NC(=O)[C@H](C(C)C)NC(=O)[C@H](C)NC(=O)[C@H](Cc2c[nH]cn2)NC1=O [N—Ac—CHAVCS—NH2] (Ac-CHAVCS-NH2; disulfide 1-5)
inhibition at 250 µg/mL ([1]; 250 μg/mL): 6.9 ± 5.4%
EC50 [4]: 490 µM

SMILES: CC(=O)N[C@H]1CSSC[C@@H](C(=O)N[C@H](C(N)=O)[C@@H](C)O)NC(=O)[C@H](C(C)C)NC(=O)[C@H](C)NC(=O)[C@H](Cc2c[nH]cn2)NC1=O [N—Ac—CHAVCT—NH2] (Ac-CHAVCT-NH2; disulfide 1-5)
inhibition at 250 µg/mL ([1]; 250 μg/mL): 23.7 ± 6.6%
EC50 [4]: 480 µM
